Data as given in patent US7803992B2, “Methods and compositions for expressing an herbicide-tolerant polynucleotide” (Pioneer Hi-Bred International, Inc., priority 2005, dated 2010).

Legend:
control maize = experiment: Evaluation of herbicide tolerance, spray at V2 stage, injury symptoms after 10-14 days; format: in vivo; details: postemergence; tribenuron (Express) 200, chlorimuron (Classic) 200, imazapyr (Arsenal) 200, metsulfuron-methyl (Ally) 35 g ai/ha
Procedure: At the V2 stage (Ritchie and Hanway (1982), “How a corn plant develops” Spec. Rep. 48. (Coop. Ext. Ser., Iowa State Univ., Ames, Iowa)), plant heights were measured and herbicides were applied by spray application. Ten to fourteen days after the spray application, the transgenic plants were evaluated for injury symptoms and measured for plant height again in order to determine plant growth rates.

[1] = test system: Heterozygous GAT-HRA corn; experiment: Preemergence herbicide application in greenhouse: fresh shoot weight and visual injury; format: in vivo; details: for pest or weed control at 200 g/ha: Zea mays, pre-emergence, 672 h, read-out: % Visual Injury; for Fresh Weight: fresh shoots weighed 4 weeks after treatment, untreated 47.0 g
GAT-HRA maize = experiment: Evaluation of herbicide tolerance, spray at V2 stage, injury symptoms after 10-14 days; format: in vivo; details: postemergence; tribenuron (Express) 200, chlorimuron (Classic) 200, imazapyr (Arsenal) 200, metsulfuron-methyl (Ally) 35 g ai/ha
Procedure: GAT-HRA maize plants were evaluated for tolerance to glyphosate and other herbicides. One protocol used in this evaluation was as follows. At the V2 stage (Ritchie and Hanway (1982), “How a corn plant develops” Spec. Rep. 48. (Coop. Ext. Ser., Iowa State Univ., Ames, Iowa)), plant heights were measured and herbicides were applied by spray application. Ten to fourteen days after the spray application, the transgenic plants were evaluated for injury symptoms and measured for plant height again in order to determine plant growth rates.
Plants were then evaluated at various times after treatment, such as 10 or 14 days after treatment.

[2] = test system: Heterozygous GAT-HRA corn; experiment: Postemergence herbicide application in greenhouse: fresh shoot weight and visual injury; format: in vivo; details: for pest or weed control at 200 g/ha: Zea mays, post-emergence, read-out: % Visual Injury; for Fresh Weight: weighed 2 weeks after treatment, untreated 98.8 g
[3] = test system: parent elite stiff stalk inbred corn; experiment: Preemergence herbicide application in greenhouse: fresh shoot weight and visual injury; format: in vivo; details: for pest or weed control at 200 g/ha: Zea mays, pre-emergence, 672 h, read-out: % Visual Injury; for Fresh Weight: fresh shoots weighed 4 weeks after treatment, untreated 36.7 g
[4] = test system: parent elite stiff stalk inbred corn; experiment: Postemergence herbicide application in greenhouse: fresh shoot weight and visual injury; format: in vivo; details: for pest or weed control at 200 g/ha: Zea mays, post-emergence, read-out: % Visual Injury; for Fresh Weight: weighed 2 weeks after treatment, untreated 76.4 g
STS ® soybeans = experiment: Postemergence herbicide treatment of soybeans in greenhouse, visual injury; format: in vivo, soybean
Source text: When possible, containers were thinned to two uniform plants.

GAT-HRA soybeans = experiment: as above; format: in vivo, soybean; details: for % Visual Injury: postemergence, glyphosate 8960, tribenuron-methyl 35, rimsulfuron 35 g/ha
Procedure: (§1) Young regenerated transgenic plants were sprayed with 1× glyphosate (1× rate of glyphosate is 1120 g/ha of glyphosate isopropylamine) to cull segregants. Four replications were performed for each treatment. Plants were then treated with various herbicides, including glyphosate and ALS-inhibitor herbicides.
(§2) Six soybean seeds from each variety to be assayed were planted 1 cm deep in 5.5 (13.97 cm) inch square plastic container of a synthetic growth medium. […] When possible, containers were thinned to two uniform plants. Non-transgenic lines were thinned to two uniform plants per container.
(§3) Results are expressed below in Table 11 as the mean of four replications.

[5] = test system: Wild Type soybeans (Jack); experiment: as above; format: in vivo, soybean; details: for % Visual Injury: postemergence, glyphosate 8960, tribenuron-methyl 35, rimsulfuron 35 g/ha
Procedure: as §1, §2, §3

[6] = preemergence, 200 g/ha, mean of four replications
[7] = postemergence, 200 g/ha (glyphosate 3472 g ae/ha, glufosinate ammonium 1870 g/ha), mean of four replications
[8] = preemergence, 200 g/ha, 0% no injury, 100% plant death, mean of four replications
[9] = postemergence, 200 g/ha (glyphosate 3472 g ae/ha, glufosinate ammonium 1870 g/ha), 0% no injury, 100% plant death, mean of four replications

## CCOC(=O)c1ccccc1S(=O)(=O)NC(=O)Nc1nc(Cl)cc(OC)n1 [Chlorimuron-ethyl]
Control maize
  damage from the treatment: severely damaged or killed
[1]
  pest or weed control at 200 g/ha: 10%
[1]; [6]
  Fresh Weight: 39.4 g
GAT-HRA maize
  damage from the treatment: no significant damage
[2]; […]
  pest or weed control at 200 g/ha: 15%
[2]; [7]
  Fresh Weight: 95.5 g
[3]
  pest or weed control at 200 g/ha: 100%
[3]; [6]
  Fresh Weight: 9.3 g
[4]; […]
  pest or weed control at 200 g/ha: 93%
[4]; [7]
  Fresh Weight: 10.1 g

## CC(C)C1(C)N=C(c2ncccc2C(=O)O)NC1=O (centres unmarked) [Imazapyr]
Control maize
  damage from the treatment: severely damaged or killed
[1]; [8]
  pest or weed control at 200 g/ha: 30%
[1]; [6]
  Fresh Weight: 44.2 g
GAT-HRA maize
  damage from the treatment: no significant damage
[2]; [9]
  pest or weed control at 200 g/ha: 1%
[2]; [7]
  Fresh Weight: 97.8 g
[3]; [8]
  pest or weed control at 200 g/ha: 99%
[3]; [6]
  Fresh Weight: 0.3 g
[4]; [9]
  pest or weed control at 200 g/ha: 100%
[4]; [7]
  Fresh Weight: 2.3 g

## COC(=O)c1ccccc1S(=O)(=O)NC(=O)Nc1nc(C)nc(OC)n1 [Metsulfuron-methyl]
Control maize
  damage from the treatment: severely damaged or killed
[1]; [8]
  pest or weed control at 200 g/ha: 0%
[1]; [6]
  Fresh Weight: 41.1 g
GAT-HRA maize
  damage from the treatment: no significant damage
[2]; [9]
  pest or weed control at 200 g/ha: 14%
[2]; [7]
  Fresh Weight: 75.5 g
[3]; [8]
  pest or weed control at 200 g/ha: 100%
[3]; [6]
  Fresh Weight: 0.0 g
[4]; [9]
  pest or weed control at 200 g/ha: 100%
[4]; [7]
  Fresh Weight: 1.9 g

## CCS(=O)(=O)c1nc2ccccn2c1S(=O)(=O)NC(=O)Nc1nc(OC)cc(OC)n1 [Sulfosulfuron]
[1]; [8]
  pest or weed control at 200 g/ha: 18%
[1]; [6]
  Fresh Weight: 50.6 g
[2]; [9]
  pest or weed control at 200 g/ha: 3%
[2]; [7]
  Fresh Weight: 105.5 g
[3]; [8]
  pest or weed control at 200 g/ha: 100%
[3]; [6]
  Fresh Weight: 1.0 g
[4]; [9]
  pest or weed control at 200 g/ha: 97%
[4]; [7]
  Fresh Weight: 4.0 g

## COC(=O)c1sccc1S(=O)(=O)NC(=O)Nc1nc(C)nc(OC)n1 [Thifensulfuron-methyl]
[1]; [8]
  pest or weed control at 200 g/ha: 3%
[1]; [6]
  Fresh Weight: 36.0 g
[2]; [9]
  pest or weed control at 200 g/ha: 10%
[2]; [7]
  Fresh Weight: 86.6 g
[3]; [8]
  pest or weed control at 200 g/ha: 88%
[3]; [6]
  Fresh Weight: 15.2 g
[4]; [9]
  pest or weed control at 200 g/ha: 98%
[4]; [7]
  Fresh Weight: 4.2 g

## COc1nc(C)nc(NC(=O)NS(=O)(=O)c2ccccc2OCCCl)n1 [Triasulfuron]
[1]; [8]
  pest or weed control at 200 g/ha: 12%
[1]; [6]
  Fresh Weight: 47.7 g
[2]; [9]
  pest or weed control at 200 g/ha: 6%
[2]; [7]
  Fresh Weight: 90.3 g
[3]; [8]
  pest or weed control at 200 g/ha: 89%
[3]; [6]
  Fresh Weight: 14.1 g
[4]; [9]
  pest or weed control at 200 g/ha: 97%
[4]; [7]
  Fresh Weight: 6.4 g

## COC(=O)c1ccccc1S(=O)(=O)NC(=O)N(C)c1nc(C)nc(OC)n1 [Tribenuron-methyl]
[1]; [8]
  pest or weed control at 200 g/ha: 25%
[1]; [6]
  Fresh Weight: 46.8 g
[2]; [9]
  pest or weed control at 200 g/ha: 8%
[2]; [7]
  Fresh Weight: 90.8 g
STS ® soybeans; STS ® line 25, glyphosate 8960, tribenuron-methyl 35, rimsulfuron 35 g/ha
  % Visual Injury: 87%
STS ® soybeans; STS ® line 46, glyphosate 8960, tribenuron-methyl 35, rimsulfuron 35 g/ha
  % Visual Injury: 88%
STS ® soybeans; STS ®, mean, glyphosate 8960, tribenuron-methyl 35, rimsulfuron 35 g/ha
  % Visual Injury: 87%
[3]; [8]
  pest or weed control at 200 g/ha: 66%
[3]; [6]
  Fresh Weight: 32.1 g
GAT-HRA soybeans; 35 g/ha, four replications
  damage from herbicide treatment: no significant damage
GAT-HRA soybeans; event 59, mean
  % Visual Injury: 59%
GAT-HRA soybeans; event 59 line 21
  % Visual Injury: 58%
GAT-HRA soybeans; event 59 line 28
  % Visual Injury: 60%
GAT-HRA soybeans; event 60, mean
  % Visual Injury: 55%
GAT-HRA soybeans; event 60 line 07
  % Visual Injury: 46%
GAT-HRA soybeans; event 60 line 11
  % Visual Injury: 71%
GAT-HRA soybeans; event 60 line 22
  % Visual Injury: 45%
GAT-HRA soybeans; event 60 line 35
  % Visual Injury: 49%
GAT-HRA soybeans; event 60 line 41
  % Visual Injury: 38%
GAT-HRA soybeans; event 60 line 46
  % Visual Injury: 49%
GAT-HRA soybeans; event 60 line 70
  % Visual Injury: 40%
GAT-HRA soybeans; event 60 line 75
  % Visual Injury: 69%
GAT-HRA soybeans; event 60 line 77
  % Visual Injury: 56%
GAT-HRA soybeans; event 60 line 79
  % Visual Injury: 69%
GAT-HRA soybeans; event 60 line 82
  % Visual Injury: 61%
GAT-HRA soybeans; event 60 line 84
  % Visual Injury: 71%
GAT-HRA soybeans; event 61, mean
  % Visual Injury: 54%
GAT-HRA soybeans; event 61 line 02
  % Visual Injury: 41%
GAT-HRA soybeans; event 61 line 02B
  % Visual Injury: 40%
GAT-HRA soybeans; event 61 line 05
  % Visual Injury: 55%
GAT-HRA soybeans; event 61 line 14
  % Visual Injury: 65%
GAT-HRA soybeans; event 61 line 18
  % Visual Injury: 69%
GAT-HRA soybeans; event 61 line 24
  % Visual Injury: 63%
GAT-HRA soybeans; event 61 line 33
  % Visual Injury: 80%
GAT-HRA soybeans; event 61 line 34
  % Visual Injury: 76%
GAT-HRA soybeans; event 61 line 47
  % Visual Injury: 36%
GAT-HRA soybeans; event 61 line 49
  % Visual Injury: 54%
GAT-HRA soybeans; event 61 line 51
  % Visual Injury: 60%
GAT-HRA soybeans; event 61 line 60
  % Visual Injury: 45%
GAT-HRA soybeans; event 61 line 62
  % Visual Injury: 43%
GAT-HRA soybeans; event 61 line 99
  % Visual Injury: 34%
GAT-HRA soybeans; event 64, mean
  % Visual Injury: 43%
GAT-HRA soybeans; event 64 line 41
  % Visual Injury: 55%
GAT-HRA soybeans; event 64 line 47
  % Visual Injury: 34%
[5]; Wild Type line 82
  % Visual Injury: 97%
[5]; Wild Type line Jack
  % Visual Injury: 97%
[5]; Wild Type, mean
  % Visual Injury: 97%
[5]; herbicide-treated non-transgenic control soybeans, 35 g/ha
  damage from herbicide treatment: killed
[4]; [9]
  pest or weed control at 200 g/ha: 100%
[4]; [7]
  Fresh Weight: 1.8 g

## COc1cc(OC)nc(NC(=O)NS(=O)(=O)c2ncccc2OCC(F)(F)F)n1 [Trifloxysulfuron Na^+, Trifloxysulfuron]
[1]; [8]
  % Visual Injury: 0%
[1]; [6]
  Fresh Weight: 50.8 g
[2]; [9]
  % Visual Injury: 29%
[2]; [7]
  Fresh Weight: 86.6 g
[3]; [8]
  % Visual Injury: 100%
[3]; [6]
  Fresh Weight: 0.0 g
[4]; [9]
  % Visual Injury: 100%
[4]; [7]
  Fresh Weight: 1.0 g

## COC(=O)c1cccc(C)c1S(=O)(=O)NC(=O)Nc1nc(OCC(F)(F)F)nc(N(C)C)n1 [Triflusulfuron-methyl]
[1]; [8]
  % Visual Injury: 5%
[1]; [6]
  Fresh Weight: 53.5 g
[2]; [9]
  % Visual Injury: 8%
[2]; [7]
  Fresh Weight: 110.9 g
[3]; [8]
  % Visual Injury: 100%
[3]; [6]
  Fresh Weight: 26.3 g
[4]; [9]
  % Visual Injury: 100%
[4]; [7]
  Fresh Weight: 2.1 g

## Imazamethabenz-methyl
[1]; [8]
  % Visual Injury: 15%
[1]; [6]
  Fresh Weight: 48.5 g
[2]; [9]
  % Visual Injury: 16%
[2]; [7]
  Fresh Weight: 95.0 g
[3]; [8]
  % Visual Injury: 61%
[3]; [6]
  Fresh Weight: 36.2 g
[4]; [9]
  % Visual Injury: 11%
[4]; [7]
  Fresh Weight: 66.9 g
